Experimental data as given in US12180187B2, “1-phenyl-5-azinylpyrazolyl-3-oxyalkyl acids and their use for controlling unwanted plant growth” (BAYER AKTIENGESELLSCHAFT, priority 2019, dated 2024).

Key:
DIGSA [1] = test: Pre-emergence action against DIGSA, 1280 g/ha; assay type: in vivo, Digitaria sanguinalis; conditions: visual scoring after about 3 weeks vs untreated controls, 100% = plants have died, 0% = like control plants
In short: (§1)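 Weed seeds sown in sandy loam in pots, covered with soil; compound as WP or EC applied to soil surface as aqueous suspension/emulsion with 0.5% additive at 600 L/ha water. Greenhouse, good growth conditions; visual % damage vs untreated controls after about 3 weeks (100% = plants dead, 0% = like control).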

ECHCG [2] = test: Pre-emergence action against ECHCG, 1280 g/ha; assay type: in vivo, Echinochloa crus-galli; conditions: visual scoring after about 3 weeks vs untreated controls, 100% = plants have died, 0% = like control plants
In short: as §1

LOLRI [3] = test: Pre-emergence action against LOLRI, 1280 g/ha; assay type: in vivo, Lolium rigidum; conditions: visual scoring after about 3 weeks vs untreated controls, 100% = plants have died, 0% = like control plants
In short: as §1

POAAN [4] = test: Pre-emergence action against POAAN, 1280 g/ha; assay type: in vivo, Poa annua; conditions: visual scoring after about 3 weeks vs untreated controls, 100% = plants have died, 0% = like control plants
In short: as §1

SETVI [5] = test: Pre-emergence action against SETVI, 1280 g/ha; assay type: in vivo, Setaria viridis; conditions: visual scoring after about 3 weeks vs untreated controls, 100% = plants have died, 0% = like control plants
In short: as §1

AMARE [6] = test: Pre-emergence action against AMARE, 1280 g/ha; assay type: in vivo, Amaranthus retroflexus; conditions: scored visually after about 3 weeks vs untreated controls (100% = plants have died)
In short: as §1

MATIN [7] = test: Pre-emergence action against MATIN, 1280 g/ha; assay type: in vivo, Tripleurospermum inodorum (Matricaria inodora); conditions: scored visually after about 3 weeks vs untreated controls (100% = plants have died)
In short: as §1

STEME [8] = test: Pre-emergence action against STEME, 1280 g/ha; assay type: in vivo, Stellaria media; conditions: scored visually after about 3 weeks vs untreated controls (100% = plants have died)
In short: as §1

VERPE [9] = test: Pre-emergence action against VERPE, 1280 g/ha; assay type: in vivo, Veronica persica; conditions: scored visually after about 3 weeks vs untreated controls (100% = plants have died)
In short: as §1

ALOMY [10] = test: Post-emergence action against ALOMY, 1.28 kg/ha; assay type: in vivo, Alopecurus myosuroides; conditions: dosage 1280 g/ha, visual rating about 3 weeks after treatment vs untreated controls
In short: (§2)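 Greenhouse-grown weeds (sandy loam, twin-sown pots) were treated 2–3 weeks post-sowing at one leaf. The spray was an aqueous WP/EC preparation plus 0.5% additive, applied at 600 L/ha. Scoring was visual at ~3 weeks, 0–100% versus untreated controls.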

DIGSA [11] = test: Post-emergence action against DIGSA, 1.28 kg/ha; assay type: in vivo, Digitaria sanguinalis; conditions: dosage 1280 g/ha, visual rating about 3 weeks after treatment vs untreated controls
In short: as §2

ECHCG [12] = test: Post-emergence action against ECHCG, 1.28 kg/ha; assay type: in vivo, Echinochloa crus-galli; conditions: dosage 1280 g/ha, visual rating about 3 weeks after treatment vs untreated controls
In short: as §2

LOLRI [13] = test: Post-emergence action against LOLRI, 1.28 kg/ha; assay type: in vivo, Lolium rigidum; conditions: dosage 1280 g/ha, visual rating about 3 weeks after treatment vs untreated controls
Procedure: (§3) • a) Seeds of mono- and dicotyledonous weed plants are placed in plastic pots in sandy loam soil (twin sowing with one species each of mono- or dicotyledonous weed plants per pot), covered with soil and cultivated in a greenhouse under controlled growth conditions. 2 to 3 weeks after sowing, the test plants are treated at the one-leaf stage. The compounds of the invention, formulated in the form of wettable powders (WP) or as emulsion concentrates (EC), are applied to the green parts of the plants as aqueous suspension or emulsion with addition of 0.5% additive at a water application rate equivalent to 600 litres per hectare. After the test plants have been kept in the greenhouse under optimum growth conditions for about 3 weeks, the activity of the preparations is rated visually in comparison to untreated controls. For example, 100% activity=the plants have died, 0% activity=like control plants. As shown by the results, compounds of the general formula (I) of the invention, in post-emergence treatment, have very good herbicidal efficacy (90% to 100% herbicidal action) against harmful plants such as Abutilon theophrasti, Digitaria sanguinalis, Echinochloa crus-galli, Matricaria inodora, Poa annua, at an application rate of 1.28 kg of active substance per hectare.

POAAN [14] = test: Post-emergence action against POAAN, 1.28 kg/ha; assay type: in vivo, Poa annua; conditions: dosage 1280 g/ha, visual rating about 3 weeks after treatment vs untreated controls
In short: as §2

ABUTH = test: Post-emergence action against ABUTH, 1.28 kg/ha; assay type: in vivo, Abutilon theophrasti; conditions: dosage 1280 g/ha, visual rating about 3 weeks after treatment vs untreated controls (100% = plants died)
In short: as §2

AMARE [15] = test: Post-emergence action against AMARE, 1.28 kg/ha; assay type: in vivo, Amaranthus retroflexus; conditions: dosage 1280 g/ha, visual rating about 3 weeks after treatment vs untreated controls (100% = plants died)
In short: as §2

MATIN [16] = test: Post-emergence action against MATIN, 1.28 kg/ha; assay type: in vivo, Tripleurospermum inodorum (Matricaria inodora); conditions: dosage 1280 g/ha, visual rating about 3 weeks after treatment vs untreated controls (100% = plants died)
In short: as §2

STEME [17] = test: Post-emergence action against STEME, 1.28 kg/ha; assay type: in vivo, Stellaria media; conditions: dosage 1280 g/ha, visual rating about 3 weeks after treatment vs untreated controls (100% = plants died)
In short: as §2

VERPE [18] = test: Post-emergence action against VERPE, 1.28 kg/ha; assay type: in vivo, Veronica persica; conditions: dosage 1280 g/ha, visual rating about 3 weeks after treatment vs untreated controls (100% = plants died)
In short: as §2

ALOMY [19] = test: Pre-emergence action against ALOMY, 1280 g/ha; assay type: in vivo, Alopecurus myosuroides; conditions: visual scoring after about 3 weeks vs untreated controls, 100% = plants have died, 0% = like control plants
In short: as §1

SETVI [20] = test: Post-emergence action against SETVI, 1.28 kg/ha; assay type: in vivo, Setaria viridis; conditions: dosage 1280 g/ha, visual rating about 3 weeks after treatment vs untreated controls
Procedure: as §3

| Structure (SMILES) | Pre-emergence action against DIGSA (DIGSA [1]) | Pre-emergence action against ECHCG (ECHCG [2]) | Pre-emergence action against LOLRI (LOLRI [3]) | Pre-emergence action against POAAN (POAAN [4]) | Pre-emergence action against SETVI (SETVI [5]) | Pre-emergence action against AMARE (AMARE [6]) | Pre-emergence action against MATIN (MATIN [7]) | Pre-emergence action against STEME (STEME [8]) | Pre-emergence action against VERPE (VERPE [9]) | Post-emergence action against ALOMY (ALOMY [10]) | Post-emergence action against DIGSA (DIGSA [11]) | Post-emergence action against ECHCG (ECHCG [12]) | Post-emergence action against LOLRI (LOLRI [13]) | Post-emergence action against POAAN (POAAN [14]) | Post-emergence action against ABUTH (ABUTH) | Post-emergence action against AMARE (AMARE [15]) | Post-emergence action against MATIN (MATIN [16]) | Post-emergence action against STEME (STEME [17]) | Post-emergence action against VERPE (VERPE [18]) | Post-emergence action against SETVI (SETVI [20]) | other results |
| --- | --- | --- | --- | --- | --- | --- | --- | --- | --- | --- | --- | --- | --- | --- | --- | --- | --- | --- | --- | --- | --- |
| O=C(COc1nn(-c2ccccc2F)c(-c2ccc(F)nc2)c1C(F)(F)F)NS(=O)(=O)CC(F)(F)F [Example X-006] | 100% | 100% | 100% | 100% | 100% | 100% | 100% | 100% | 100% | 100% | 90% | 100% | 90% | 100% | 90% | 100% | 100% | 100% | 90% | – | – |
| O=C(COc1nn(-c2ccccc2F)c(-c2ccc(F)nc2)c1Br)NO [Example X-023] | 100% | 100% | 100% | 100% | 100% | 100% | 100% | 100% | 100% | 100% | 100% | 100% | 100% | 100% | 90% | 100% | 100% | 100% | 100% | 90% | Pre-emergence action against ALOMY (ALOMY [19]): 90% |
| O=C(O)CNC(=O)COc1nn(-c2ccccc2F)c(-c2ccc(F)nc2)c1C(F)(F)F [Example X-026] | 100% | 100% | 100% | 100% | 100% | 100% | 100% | 100% | 100% | 100% | 100% | – | 90% | 100% | 90% | 90% | 100% | 100% | 90% | 100% | Pre-emergence action against ALOMY (ALOMY [19]): 100% |
| O=C(COc1nn(-c2ccccc2F)c(-c2cncnc2)c1Br)OCc1ccccc1 [VI-002] | – | 100% | 100% | 100% | 100% | 100% | 90% | 100% | 90% | – | – | 100% | 100% | 100% | 90% | 90% | 100% | 90% | 90% | 90% | – |
| Cc1ccccc1-n1nc(OCC(=O)O)c(I)c1-c1ccc(F)nc1 [VII-097] | 100% | 100% | 100% | 100% | 100% | 100% | 90% | 100% | 100% | 100% | 100% | 100% | 90% | 100% | – | – | 90% | 90% | 100% | 90% | – |
| CCOC(=O)COc1nn(-c2ccccc2F)c(-c2ccc(F)nc2)c1C1CC1 [VII-119] | 100% | 100% | 100% | 100% | 100% | 100% | 100% | 100% | 100% | 100% | 100% | 100% | 100% | 100% | 90% | 100% | 100% | 100% | 100% | 100% | Pre-emergence action against ALOMY (ALOMY [19]): 100% |
